According to publication PMC7601585, “Aedes albopictus D7 Salivary Protein Prevents Host Hemostasis and Inflammation” (Biomolecules, 2020):

Experiments:
AlboD7L1 = target: T1, AlboD7L1 (Aedes albopictus, UniProt Q5MIW7); assay: biochemical; type: binding; conditions: for ΔH (kcal/mol) ± SE / −TΔS: ITC, 30 °C, TBS pH 7.4, single-site model, N fixed = 1
T1 construct: made in house; host or cells: Escherichia coli BL21 (DE3) pLysS
Description: To identify the potential biological function of AlboD7L1, isothermal titration calorimetry (ITC) was used to determine its binding affinities to putative ligands that are known to affect inflammation and hemostasis (biogenic amines, leukotrienes, and thromboxane A2). Measurements were performed on a MicroCal VP-ITC (Malvern Panalytical, Westborough, MA, USA) at 30 °C and stir speed at 286 rpm. […] Protein and ligands were diluted in Tris-buffered saline (TBS-20 mM Tris-HCl, 150 mM NaCl, pH 7.4) and degassed under vacuum for 5 min using a MicroCal ThermoVac (Malvern Panalytical, Westborough, MA, USA). The AlboD7L1 concentrations were 2 μM, 3 μM, or 5 μM, and ligand concentrations were prepared at 10-fold the protein concentration (20 μM, 30 μM, or 50 μM), depending on protein/ligand combination for optimal ITC performance. For eicosanoid ligands, the solvent was first evaporated under a stream of nitrogen gas prior to dissolving in TBS, vortexed, and sonicated for 10 min (Branson 1510, Branson Ultrasonics, Danbury, CT, USA) to ensure dissolution. The protein sample volume in the cell was 1.4 mL, and ligand injections were delivered in 10 μL volume in a total of 31 injections. The data was analyzed using the MicroCal PEAQ-ITC analysis software v 1.21 (Malvern Panalytical, Westborough, MA, USA) by fitting to a single-site binding model to obtain the stoichiometry (N), the dissociation constant (KD), the enthalpy of binding (ΔH), and the entropy change (ΔS°) at a constant temperature (T).

AeD7L1 = test system: AeD7L1; set-up: method as in PMID 19234127; conditions: cited from earlier work
platelet rich plasma = assay: Ex vivo platelet aggregation (light transmission aggregometer); type: cell-based, human; conditions: lower U-46619 doses (Supplementary Figure S3A)
Description: Platelet rich plasma was obtained from normal healthy donors on the NCI IRB approved NIH protocol 99-CC-0168, “Collection and Distribution of Blood Components from Healthy Donors for In Vitro Research Use.” Blood donors provided written informed consent, and platelets were de-identified prior to distribution. Platelet aggregation was measured using a light transmission aggregometer (Chrono-Log Corporation, Havertown, PA, USA). Briefly, 300 μL of platelet rich plasma, diluted to approximately 2.5 × 10^5 platelets/μL in HEPES-Tyrode’s buffer (137 mM NaCl, […], 12 mM NaHCO3, 0.34 mM sodium phosphate monobasic, 1 mM MgCl2, 2.9 mM KCl, 5 mM HEPES, 5 mM glucose, 1% BSA, 0.03 mM EDTA, pH 7.4) were pre-stirred in the aggregometer for 1 min to monitor pre-aggregation effects. Recombinant AlboD7L1 or Tyrode’s buffer as negative control were added to the platelet rich plasma before adding the agonists. Aggregation agonists used in our studies included serotonin, epinephrine, collagen type I fibrils from equine tendons, U-46619, ADP or combination of agonists. Their concentrations are specified in the figure or figure captions. Technical duplicates were performed. For experiments shown in Figure 6 a Chrono-Log aggregometer model 500-CA was used while experiments shown in Supplementary Figure S3 were done in a Chrono-Log model 700.

T1 sequence (Q5MIW7 22-332 limits assumed): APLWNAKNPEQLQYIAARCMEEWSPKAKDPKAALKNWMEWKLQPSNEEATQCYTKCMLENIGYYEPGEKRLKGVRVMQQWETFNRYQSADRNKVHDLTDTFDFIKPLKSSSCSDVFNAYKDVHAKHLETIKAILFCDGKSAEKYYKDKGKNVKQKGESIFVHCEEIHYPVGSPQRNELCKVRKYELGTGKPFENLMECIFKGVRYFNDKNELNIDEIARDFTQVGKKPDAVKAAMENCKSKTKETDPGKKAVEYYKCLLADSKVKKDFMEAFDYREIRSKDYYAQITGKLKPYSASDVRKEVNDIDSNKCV

Molecule	Kd (AlboD7L1)	ΔH (kcal/mol) ± SE (AlboD7L1)	−TΔS (AlboD7L1)	binding to AeD7L1 (AeD7L1)	platelet aggregation initiated with lower doses of U-46619 (platelet rich plasma)
NCCc1ccc(O)c(O)c1 [Dopamine, dopamine]	11 ± 2.19 nM	-12.3 ± 0.197 kcal/mol	1.23 kcal/mol	–	–
CNC[C@H](O)c1ccc(O)c(O)c1 [Epinephrine, epinephrine]	4110 ± 3330 nM	-6.83 ± 0.809 kcal/mol	-0.637 kcal/mol	–	–
NCCc1c[nH]cn1 [Histamine, histamine]	278 ± 66.2 nM	-7.47 ± 0.378 kcal/mol	-1.63 kcal/mol	–	–
CCCCC/C=C\C[C@@H](O)/C=C/C=C/C=C\[C@@H](O)CCCC(=O)O [LTB4, leukotriene B4]	342 ± 65 nM	-2.74 ± 0.085 kcal/mol	-6.23 kcal/mol	–	–
CCCCC/C=C\C\C=C/C=C/C=C/[C@@H](SC[C@H](NC(=O)CC[C@H](N)C(=O)O)C(=O)NCC(=O)O)[C@@H](O)CCCC(=O)O [LTC4]	67.7 ± 22.4 nM	-7.90 ± 0.350 kcal/mol	-2.05 kcal/mol	–	–
CCCCC/C=C\C\C=C/C=C/C=C/[C@@H](SC[C@H](N)C(=O)NCC(=O)O)[C@@H](O)CCCC(=O)O [LTD4]	332 ± 48.3 nM	-5.00 ± 0.139 kcal/mol	-3.98 kcal/mol	–	–
CCCCC/C=C\C\C=C/C=C/C=C/[C@@H](SC[C@H](N)C(=O)O)[C@@H](O)CCCC(=O)O [LTE4, leukotriene E4]	567 ± 115 nM	-3.98 ± 0.180 kcal/mol	-4.69 kcal/mol	–	–
NC[C@H](O)c1ccc(O)c(O)c1 [Norepinephrine, norepinephrine]	3.67 ± 0.994 nM	-11.6 ± 0.186 kcal/mol	-0.116 kcal/mol	–	–
NCCc1c[nH]c2ccc(O)cc12 [Serotonin, serotonin]	4.51 ± 2.66 nM	-13.7 ± 0.445 kcal/mol	2.13 kcal/mol	–	–
NCCc1c[nH]c2ccccc12 [Tryptamine, tryptamine]	570 ± 97.7 nM	-6.43 ± 0.223 kcal/mol	-2.23 kcal/mol	–	–
CCCCCC(O)C=CC1C2CC(CO2)C1CC=CCCCC(=O)O (centres unmarked) [U-46619]	946 ± 269 nM	-8.54 ± 0.785 kcal/mol	0.189 kcal/mol	does not bind	–
AeD7L1: D7 long form salivary protein from Ae. aegypti (GenBank: AAA29347) (protein, UniProt P18153 18-321, looked up) Long form salivary protein …: STGPFDPEEMLFTFTRCMEDNLEDGPNRLPMLAKWKEWINEPVDSPATQCFGKCVLVRTGLYDPVAQKFDASVIQEQFKAYPSLGEKSKVEAYANAVQQLPSTNNDCAAVFKAYDPVHKAHKDTSKNLFHGNKELTKGLYEKLGKDIRQKKQSYFEFCENKYYPAGSDKRQQLCKIRQYTVLDDALFKEHTDCVMKGIRYITKNNELDAEEVKRDFMQVNKDTKALEKVLNDCKSKEPSNAGEKSWHYYKCLVESSVKDDFKEAFDYREVRSQIYAFNLPKKQVYSKPAVQSQVMEIDGKQCPQ	–	–	–	–	inhibits platelet aggregation
